# In the supplement of paper PMC11061612:
# Key:
# [1] = test system: NCI-H2170 (Squamous Cell Lung Carcinoma); experiment: combination Emax (second highest fraction inhibited in the dose matrix, 72 h); higher = more inhibition; extreme values may be limits of the assay
# Method in brief: (§1)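 After 24 hours at 37°C and 5% CO2 in 1536-well plates, cells in DMEM/F12 or RPMI plus 10% FBS received two-drug dose matrices for 72 hours. Viability came from CellTiter-Glo 2.0 luminescence and was scaled as inhibition, anchored at 0 by vehicle wells and at 1 by blank wells. Combination Emax is taken as the second-highest inhibition in the matrix, and Bliss excess as the observed combination effect less EA + EB − EA·EB, with EA and EB the single-agent effects.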
# [2] = test system: SBC-5 (Small Cell Lung Carcinoma); experiment: as above
# Method in brief: as §1
# [3] = test system: CAL-85-1 (Breast Carcinoma); experiment: as above
# Method in brief: as §1
# SK-MEL-24 (Melanoma) = experiment: as above
# Method in brief: as §1
# [4] = test system: NCI-H1048 (Small Cell Lung Carcinoma); experiment: as above
# Method in brief: as §1
# [5] = test system: ATN-1 (T-Lymphoblastic Leukemia); experiment: as above
# Method in brief: as §1
# [6] = test system: NCI-H1648 (Lung Adenocarcinoma); experiment: as above
# Method in brief: as §1
# M14 (Melanoma) [7] = experiment: as above
# Method in brief: as §1
# [8] = test system: SBC-3 (Small Cell Lung Carcinoma); experiment: as above
# Method in brief: as §1
# HT-144 (Melanoma) = experiment: as above
# Method in brief: as §1
# [9] = test system: OCI-M1 (Acute Myeloid Leukemia); experiment: as above
# Method in brief: as §1
# [10] = test system: TK (B-Cell Non-Hodgkin's Lymphoma); experiment: as above
# Method in brief: as §1
# [11] = test system: NTERA-2-cl-D1 (Other Solid Carcinomas); experiment: as above
# Method in brief: as §1
# [12] = test system: NCI-H1435 (Non-Small Cell Lung Carcinoma); experiment: as above
# Method in brief: as §1
# [13] = test system: SW1463 (Colorectal Carcinoma); experiment: as above
# Method in brief: as §1
# [14] = test system: NCI-H835 (Other Solid Carcinomas); experiment: as above
# Method in brief: as §1
# M14 (Melanoma) [15] = experiment: Bliss excess, mean over the matrix (fraction); higher = more synergy
# Method in brief: as §1
# RVH-421 (Melanoma) [16] = experiment: combination Emax (second highest fraction inhibited in the dose matrix, 72 h); higher = more inhibition; extreme values may be limits of the assay
# Method in brief: as §1
# [17] = test system: IGROV-1 (Ovarian Carcinoma); experiment: as above
# Method in brief: as §1
# RVH-421 (Melanoma) [18] = experiment: Bliss excess, mean over the matrix (fraction); higher = more synergy
# Method in brief: as §1
# 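Wherever Bliss excess, mean over the matrix is given: after 72 h of two-drug dosing.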
structure (smiles),measurement,setting,value
"C=CCn1c(=O)c2cnc(Nc3ccc(N4CCN(C)CC4)cc3)nc2n1-c1cccc(C(C)(C)O)n1 [AZD1775] + C1CN(CCC1(C(=O)N[C@@H](CCO)C2=CC=C(C=C2)Cl)N)C3=NC=NC4=C3C=CN4 [Capivasertib] (first compound max 3 µM, partner max 3 µM)",combination Emax,[1],0.828
same,combination Emax,[2],0.87
same,combination Emax,[3],0.682
same,combination Emax,SK-MEL-24 (Melanoma),0.503
same,combination Emax,[4],0.91
same,combination Emax,[5],0.994
same,combination Emax,[6],0.821
same,combination Emax,M14 (Melanoma) [7],0.766
same,combination Emax,[8],0.881
same,combination Emax,HT-144 (Melanoma),0.954
same,combination Emax,[9],0.974
same,combination Emax,[10],0.909
same,combination Emax,[11],0.496
same,combination Emax,[12],0.442
same,combination Emax,[13],0.47
same,combination Emax,[14],0.866
same,Bliss excess,M14 (Melanoma) [15],0.0065
"COc1cc2c(cc1OCCCCCOc1cc3c(cc1OC)C(=O)N1C=C(C)C[C@H]1C=N3)N=C[C@@H]1CC(C)=CN1C2=O [SG3199] + O=C(c1cc(Cc2n[nH]c(=O)c3ccccc23)ccc1F)N1CCN(C(=O)C2CC2)CC1 [Olaparib] (first compound max 0.001 µM, 7x7, partner max 10 µM)",combination Emax,[1],0.228
same,combination Emax,[2],0.0814
same,combination Emax,[3],0.188
same,combination Emax,SK-MEL-24 (Melanoma),0.129
same,combination Emax,RVH-421 (Melanoma) [16],0.0596
same,combination Emax,[4],0.387
same,combination Emax,[5],0.0857
same,combination Emax,[6],0.129
same,combination Emax,[8],0.478
same,combination Emax,HT-144 (Melanoma),0.232
same,combination Emax,[9],0.249
same,combination Emax,[10],0.184
same,combination Emax,[11],0.457
same,combination Emax,[12],0.107
same,combination Emax,[13],0.0306
same,combination Emax,[14],0.169
same,combination Emax,[17],0.358
same,Bliss excess,RVH-421 (Melanoma) [18],-0.0773
"CN(CCO)CC[C@H](CSc1ccccc1)Nc1ccc(S(=O)(=O)NC(=O)c2ccc(N3CCC([C@@H](O)c4ccccc4-c4ccc(Cl)cc4)CC3)cc2)cc1S(=O)(=O)C(F)(F)F [AZD4320] + Cc1cc2ncnn2cc1Nc1ncc2c(n1)n(C1CCOCC1)c(=O)n2C [AZD7648] (first compound max 1 µM, 7x7, partner max 10 µM)",combination Emax,[1],0.674
same,combination Emax,[2],0.166
same,combination Emax,[3],0.337
same,combination Emax,SK-MEL-24 (Melanoma),0.252
same,combination Emax,RVH-421 (Melanoma) [16],0.211
same,combination Emax,[4],0.884
same,combination Emax,[5],0.778
same,combination Emax,[6],0.694
same,combination Emax,[8],0.276
same,combination Emax,HT-144 (Melanoma),0.193
same,combination Emax,[9],0.981
same,combination Emax,[10],0.991
same,combination Emax,[11],0.682
same,combination Emax,[12],0.752
same,combination Emax,[13],0.185
same,combination Emax,[17],0.653
same,Bliss excess,RVH-421 (Melanoma) [18],-0.0345
"Cc1cc2ncnn2cc1Nc1ncc2c(n1)n(C1CCOCC1)c(=O)n2C [AZD7648] + CN(C)CCCOc1ccc(-c2ccc3ncc4c(c3c2)n(C2CCOCC2)c(=O)n4C)cn1 [AZD0156] (first compound max 10 µM, 7x7, partner max 1 µM)",combination Emax,[1],0.335
same,combination Emax,[2],0.224
same,combination Emax,[3],0.371
same,combination Emax,SK-MEL-24 (Melanoma),0.28
same,combination Emax,RVH-421 (Melanoma) [16],0.274
same,combination Emax,[4],0.407
same,combination Emax,[5],0.481
same,combination Emax,[6],0.508
same,combination Emax,[8],0.482
same,combination Emax,HT-144 (Melanoma),0.218
same,combination Emax,[9],0.173
same,combination Emax,[10],0.204
same,combination Emax,[11],0.484
same,combination Emax,[12],0.226
same,combination Emax,[13],0.159
same,combination Emax,[14],0.36
same,combination Emax,[17],0.584
same,Bliss excess,RVH-421 (Melanoma) [18],-0.0099
"Cc1cc2ncnn2cc1Nc1ncc2c(n1)n(C1CCOCC1)c(=O)n2C [AZD7648] + CCN(CCO)CCCOc1ccc2c(Nc3cc(CC(=O)Nc4cccc(F)c4)[nH]n3)ncnc2c1 [AZD2811] (first compound max 10 µM, 7x7, partner max 1 µM)",combination Emax,[1],0.696
same,combination Emax,[2],0.39
same,combination Emax,[3],0.31
same,combination Emax,SK-MEL-24 (Melanoma),0.373
same,combination Emax,RVH-421 (Melanoma) [16],0.299
same,combination Emax,[4],0.706
same,combination Emax,[5],0.832
same,combination Emax,[6],0.547
same,combination Emax,[8],0.564
same,combination Emax,HT-144 (Melanoma),0.327
same,combination Emax,[9],0.237
same,combination Emax,[10],0.281
same,combination Emax,[11],0.554
same,combination Emax,[12],0.288
same,combination Emax,[13],0.27
same,combination Emax,[14],0.36
same,combination Emax,[17],0.566
same,Bliss excess,RVH-421 (Melanoma) [18],-0.0193
"CN(CCO)CC[C@H](CSc1ccccc1)Nc1ccc(S(=O)(=O)NC(=O)c2ccc(N3CCC([C@@H](O)c4ccccc4-c4ccc(Cl)cc4)CC3)cc2)cc1S(=O)(=O)C(F)(F)F [AZD4320] + CCN(CCO)CCCOc1ccc2c(Nc3cc(CC(=O)Nc4cccc(F)c4)[nH]n3)ncnc2c1 [AZD2811] (first compound max 1 µM, 7x7, partner max 1 µM)",combination Emax,[1],0.627
same,combination Emax,[2],0.3
same,combination Emax,[3],0.397
same,combination Emax,SK-MEL-24 (Melanoma),0.226
same,combination Emax,RVH-421 (Melanoma) [16],0.196
same,combination Emax,[4],0.933
same,combination Emax,[5],0.939
same,combination Emax,[6],0.571
same,combination Emax,[8],0.523
same,combination Emax,HT-144 (Melanoma),0.245
same,combination Emax,[9],0.988
same,combination Emax,[10],0.993
same,combination Emax,[11],0.921
same,combination Emax,[12],0.699
same,combination Emax,[13],0.204
same,combination Emax,[17],0.266
same,Bliss excess,RVH-421 (Melanoma) [18],-0.0297
"Cc1cc2ncnn2cc1Nc1ncc2c(n1)n(C1CCOCC1)c(=O)n2C [AZD7648] + C[C@@H]1COCCN1C2=NC(=NC(=C2)C3(CC3)[S@](=N)(=O)C)C4=C5C=CNC5=NC=C4 [AZD6738] (first compound max 10 µM, 7x7, partner max 10 µM)",combination Emax,[1],0.657
same,combination Emax,[2],0.481
same,combination Emax,[3],0.594
same,combination Emax,SK-MEL-24 (Melanoma),0.509
same,combination Emax,RVH-421 (Melanoma) [16],0.322
same,combination Emax,[4],0.508
same,combination Emax,[5],0.995
same,combination Emax,[6],0.779
same,combination Emax,[8],0.71
same,combination Emax,HT-144 (Melanoma),0.753
same,combination Emax,[9],0.956
same,combination Emax,[10],0.91
same,combination Emax,[11],0.617
same,combination Emax,[12],0.217
same,combination Emax,[13],0.543
same,combination Emax,[14],0.389
same,combination Emax,[17],0.66
same,Bliss excess,RVH-421 (Melanoma) [18],0.0381
"Cc1cc2ncnn2cc1Nc1ncc2c(n1)n(C1CCOCC1)c(=O)n2C [AZD7648] + C=CCn1c(=O)c2cnc(Nc3ccc(N4CCN(C)CC4)cc3)nc2n1-c1cccc(C(C)(C)O)n1 [AZD1775] (first compound max 10 µM, partner max 1 µM)",combination Emax,[1],0.741
same,combination Emax,[2],0.359
same,combination Emax,[3],0.452
same,combination Emax,SK-MEL-24 (Melanoma),0.495
same,combination Emax,RVH-421 (Melanoma) [16],0.289
same,combination Emax,[4],0.747
same,combination Emax,[5],1
same,combination Emax,[6],0.774
same,combination Emax,[8],0.576
same,combination Emax,HT-144 (Melanoma),0.611
same,combination Emax,[9],0.87
same,combination Emax,[10],0.895
same,combination Emax,[11],0.476
same,combination Emax,[12],0.355
same,combination Emax,[13],0.411
same,combination Emax,[14],0.69
same,combination Emax,[17],0.819
same,Bliss excess,RVH-421 (Melanoma) [18],0.0039
